# Experimental data from ChEMBL document CHEMBL1201861, “Genomics of Drug Sensitity in Cancer screening data, Wellcome Trust Sanger Institute”.
# Experiments:
# Assay in all cases: cells
# NB5 = type: functional, cell-based, Homo sapiens; conditions: Homo sapiens, NB5;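 further: growth inhibition of NB5 cells, read out as cell viability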
# Description: SANGER: Inhibition of human NB5 cell growth in a cell viability assay.
# NCI-H209 = type: functional, cell-based, Homo sapiens; conditions: Homo sapiens, NCI-H209;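 further: growth inhibition of human NCI-H209 cells, measured by a cell viability assay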
# Description: SANGER: Inhibition of human NCI-H209 cell growth in a cell viability assay.
# SCC-15 = type: functional, cell-based, Homo sapiens; conditions: Homo sapiens, SCC-15;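 further: growth inhibition of SCC-15 cells, read out with a cell viability assay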
# Description: SANGER: Inhibition of human SCC-15 cell growth in a cell viability assay.
# NH-12 = type: functional, cell-based, Homo sapiens; conditions: Homo sapiens, NH-12;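 further: growth inhibition of NH-12 cells, read out with a cell viability assay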
# Description: SANGER: Inhibition of human NH-12 cell growth in a cell viability assay.
# SW982 = type: functional, cell-based, Homo sapiens; conditions: Homo sapiens, SW982;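 further: growth inhibition of SW982 cells, read out with a cell viability assay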
# Description: SANGER: Inhibition of human SW982 cell growth in a cell viability assay.
# U-87 MG = type: functional, cell-based, Homo sapiens, U-87MG ATCC; conditions: Homo sapiens, U-87 MG;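 further: growth inhibition of the cells measured with a viability assay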
# Description: SANGER: Inhibition of human U-87-MG cell growth in a cell viability assay.
# LB2518-MEL = type: functional, cell-based, Homo sapiens; conditions: Homo sapiens, LB2518-MEL;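 further: growth inhibition of human LB2518-MEL cells, measured with a cell viability assay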
# Description: SANGER: Inhibition of human LB2518-MEL cell growth in a cell viability assay.
# NCI-H2126 = type: functional, cell-based, Homo sapiens; conditions: Homo sapiens, NCI-H2126;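 further: growth inhibition of the cancer cell line, determined with a cell viability readout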
# Description: SANGER: Inhibition of human NCI-H2126 cell growth in a cell viability assay.
# KARPAS-299 = type: functional, cell-based, Homo sapiens; conditions: Homo sapiens, KARPAS-299
# Description: SANGER: Inhibition of human KARPAS-299 cell growth in a cell viability assay.
# IA-LM = type: functional, cell-based, Homo sapiens; conditions: Homo sapiens, IA-LM;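 further: cell viability assay measuring growth inhibition of human IA-LM cells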
# Description: SANGER: Inhibition of human IA-LM cell growth in a cell viability assay.
# HEL = type: functional, cell-based, Homo sapiens; conditions: Homo sapiens, HEL;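 further: growth inhibition of HEL cells, read out with a cell viability assay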
# Description: SANGER: Inhibition of human HEL cell growth in a cell viability assay.
# SNU-C2B = type: functional, cell-based, Homo sapiens; conditions: Homo sapiens, SNU-C2B;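 further: cell viability readout used to measure compound-driven suppression of SNU-C2B cell proliferation, IC50 marking half-maximal growth inhibition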
# Description: SANGER: Inhibition of human SNU-C2B cell growth in a cell viability assay.
# 697 = type: functional, cell-based, Homo sapiens; conditions: Homo sapiens
# Description: SANGER: Inhibition of human 697 cell growth in a cell viability assay.
# NCI-H1304 = type: functional, cell-based, Homo sapiens; conditions: Homo sapiens, NCI-H1304;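 further: growth inhibition of the cancer cell line, measured in a cell viability assay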
# Description: SANGER: Inhibition of human NCI-H1304 cell growth in a cell viability assay.
# CTV-1 = type: functional, cell-based, Homo sapiens; conditions: Homo sapiens, CTV-1;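 further: growth inhibition of the cell line, read out with a cell viability assay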
# Description: SANGER: Inhibition of human CTV-1 cell growth in a cell viability assay.
# SK-N-FI = type: functional, cell-based, Homo sapiens; conditions: Homo sapiens, SK-N-FI;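 further: cell viability assay measuring growth inhibition of human SK-N-FI cells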
# Description: SANGER: Inhibition of human SK-N-FI cell growth in a cell viability assay.
# SW684 = type: functional, cell-based, Homo sapiens; conditions: Homo sapiens, SW684;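 further: growth inhibition of human SW684 cells, measured by a cell viability assay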
# Description: SANGER: Inhibition of human SW684 cell growth in a cell viability assay.
# SNU-5 = type: functional, cell-based, Homo sapiens; conditions: Homo sapiens, SNU-5;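 further: cell viability readout used to measure growth inhibition in human NCI-SNU-5 cells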
# Description: SANGER: Inhibition of human NCI-SNU-5 cell growth in a cell viability assay.
# D283 Med = type: functional, cell-based, Homo sapiens; conditions: Homo sapiens, D283 Med
# Description: SANGER: Inhibition of human D-283MED cell growth in a cell viability assay.
# P30-OHK = type: functional, cell-based, Homo sapiens; conditions: Homo sapiens, P30-OHK;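 further: growth inhibition of the P30-OHK cell line, read out with a cell viability assay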
# Description: SANGER: Inhibition of human P30-OHK cell growth in a cell viability assay.
# NCI-H1155 = type: functional, cell-based, Homo sapiens; conditions: Homo sapiens, NCI-H1155;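 further: cell growth inhibition measured by a viability assay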
# Description: SANGER: Inhibition of human NCI-H1155 cell growth in a cell viability assay.
# NCI-H69 = type: functional, cell-based, Homo sapiens; conditions: Homo sapiens, NCI-H69;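 further: growth inhibition of the cell line, read out with a cell viability assay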
# Description: SANGER: Inhibition of human NCI-H69 cell growth in a cell viability assay.
# NB13 = type: functional, cell-based, Homo sapiens; conditions: Homo sapiens, NB13;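 further: cell viability readout measuring growth inhibition of human NB13 cells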
# Description: SANGER: Inhibition of human NB13 cell growth in a cell viability assay.
# ES4 = type: functional, cell-based, Homo sapiens; conditions: Homo sapiens, ES4;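 further: growth inhibition of human ES4 cells, read out by a cell viability assay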
# Description: SANGER: Inhibition of human ES4 cell growth in a cell viability assay.
# SK-NEP-1 = type: functional, cell-based, Homo sapiens; conditions: Homo sapiens, SK-NEP-1;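 further: growth inhibition of human SK-NEP-1 cells, read out by a cell viability assay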
# Description: SANGER: Inhibition of human SK-NEP-1 cell growth in a cell viability assay.
# A253 cell line = type: functional, cell-based, Homo sapiens; conditions: Homo sapiens, A253;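 further: growth inhibition of A253 cells, read out with a cell viability assay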
# Description: SANGER: Inhibition of human A253 cell growth in a cell viability assay.
# TE-8 = type: functional, cell-based, Homo sapiens; conditions: Homo sapiens, TE-8;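 further: growth inhibition of TE-8 cells, measured with a cell viability readout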
# Description: SANGER: Inhibition of human TE-8 cell growth in a cell viability assay.
# SNU1 = type: functional, cell-based, Homo sapiens; conditions: Homo sapiens, SNU1;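 further: growth inhibition of human NCI-SNU-1 cells, measured with a cell viability assay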
# Description: SANGER: Inhibition of human NCI-SNU-1 cell growth in a cell viability assay.
# GT3TKB = type: functional, cell-based, Homo sapiens; conditions: Homo sapiens, GT3TKB;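 further: growth inhibition of the cell line, read out with a cell viability assay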
# Description: SANGER: Inhibition of human GT3TKB cell growth in a cell viability assay.
# TE-9 = type: functional, cell-based, Homo sapiens; conditions: Homo sapiens, TE-9;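 further: cell growth inhibition, measured with a cell viability readout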
# Description: SANGER: Inhibition of human TE-9 cell growth in a cell viability assay.
# AM-38 = type: functional, cell-based, Homo sapiens; conditions: Homo sapiens, AM-38;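 further: growth inhibition of AM-38 cells of human origin, read out by a cell viability assay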
# Description: SANGER: Inhibition of human AM-38 cell growth in a cell viability assay.
# CW-2 = type: functional, cell-based, Homo sapiens; conditions: Homo sapiens, CW-2;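 further: growth inhibition of CW-2 cells, read out by a cell viability assay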
# Description: SANGER: Inhibition of human CW-2 cell growth in a cell viability assay.
# KS-1 = type: functional, cell-based, Homo sapiens; conditions: Homo sapiens, KS-1;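 further: growth inhibition of KS-1 cells, read out with a cell viability assay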
# Description: SANGER: Inhibition of human KS-1 cell growth in a cell viability assay.
# Ramos-2G6-4C10 = type: functional, cell-based, Homo sapiens; conditions: Homo sapiens, Ramos-2G6-4C10;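 further: growth inhibition of the cell line, measured by a cell viability read-out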
# Description: SANGER: Inhibition of human Ramos-2G6-4C10 cell growth in a cell viability assay.
# GCIY = type: functional, cell-based, Homo sapiens; conditions: Homo sapiens, GCIY;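 further: growth inhibition of the human GCIY cell line, read out by a cell viability assay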
# Description: SANGER: Inhibition of human GCIY cell growth in a cell viability assay.
# DJM-1 = type: functional, cell-based, Homo sapiens; conditions: Homo sapiens, DJM-1;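 further: growth inhibition of human DJM-1 cells, read out by a cell viability assay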
# Description: SANGER: Inhibition of human DJM-1 cell growth in a cell viability assay.
# SBC-1 = type: functional, cell-based, Homo sapiens; conditions: Homo sapiens, SBC-1;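 further: cell viability assay measuring growth inhibition of the SBC-1 cell line, IC50 being the concentration that halves growth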
# Description: SANGER: Inhibition of human SBC-1 cell growth in a cell viability assay.
# HCC1187 = type: functional, cell-based, Homo sapiens; conditions: Homo sapiens, HCC1187;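 further: growth inhibition of HCC1187 cells, read out with a cell viability assay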
# Description: SANGER: Inhibition of human HCC1187 cell growth in a cell viability assay.
# BT-474 = type: functional, cell-based, Homo sapiens; conditions: Homo sapiens, BT-474
# Description: SANGER: Inhibition of human BT-474 cell growth in a cell viability assay.
# COLO-684 = type: functional, cell-based, Homo sapiens; conditions: Homo sapiens, COLO-684
# Description: SANGER: Inhibition of human COLO-684 cell growth in a cell viability assay.
# EW-16 = type: functional, cell-based, Homo sapiens; conditions: Homo sapiens, EW-16;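 further: growth inhibition of human EW-16 cells, read out as cell viability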
# Description: SANGER: Inhibition of human EW-16 cell growth in a cell viability assay.
# PSN1 = type: functional, cell-based, Homo sapiens; conditions: Homo sapiens, PSN1;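 further: suppression of growth of human PSN1 cells, read out by a cell viability assay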
# Description: SANGER: Inhibition of human PSN1 cell growth in a cell viability assay.
# MN-60 = type: functional, cell-based, Homo sapiens; conditions: Homo sapiens, MN-60;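 further: growth inhibition of the MN-60 cell line, determined with a cell viability assay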
# Description: SANGER: Inhibition of human MN-60 cell growth in a cell viability assay.
# ATN-1 = type: functional, cell-based, Homo sapiens; conditions: Homo sapiens, ATN-1;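 further: growth inhibition of human ATN-1 cells, read out with a cell viability assay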
# Description: SANGER: Inhibition of human ATN-1 cell growth in a cell viability assay.
# MSTO-211H = type: functional, cell-based, Homo sapiens; conditions: Homo sapiens, MSTO-211H
# Description: SANGER: Inhibition of human MSTO-211H cell growth in a cell viability assay.
# SW 954 = type: functional, cell-based, Homo sapiens; conditions: Homo sapiens, SW 954;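 further: growth inhibition of SW954 human cancer cells, read out as cell viability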
# Description: SANGER: Inhibition of human SW954 cell growth in a cell viability assay.
# LAN-6 = type: functional, cell-based, Homo sapiens; conditions: Homo sapiens, LAN-6;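 further: growth inhibition of LAN-6 cells, determined with a cell viability assay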
# Description: SANGER: Inhibition of human LAN-6 cell growth in a cell viability assay.
# MHH-PREB-1 = type: functional, cell-based, Homo sapiens; conditions: Homo sapiens, MHH-PREB-1;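 further: cell viability assay measuring inhibition of proliferation of human MHH-PREB-1 cells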
# Description: SANGER: Inhibition of human MHH-PREB-1 cell growth in a cell viability assay.
# EC-GI-10 = type: functional, cell-based, Homo sapiens; conditions: Homo sapiens, EC-GI-10
# Description: SANGER: Inhibition of human EC-GI-10 cell growth in a cell viability assay.
compound,measurement,setting,value
CC(C)CCN1c2nc(Nc3cc(F)c(O)c(F)c3)ncc2N(C)C(=O)C1C (configuration not stated),IC50,NB5,> 5000 nM
same,IC50,NCI-H209,768 nM
same,IC50,SCC-15,> 5000 nM
same,IC50,NH-12,3110 nM
same,IC50,SW982,> 5000 nM
same,IC50,U-87 MG,> 5000 nM
same,IC50,LB2518-MEL,> 5000 nM
same,IC50,NCI-H2126,> 5000 nM
same,IC50,KARPAS-299,> 5000 nM
same,IC50,IA-LM,> 5000 nM
same,IC50,HEL,2700 nM
same,IC50,SNU-C2B,3390 nM
same,IC50,697,2020 nM
same,IC50,NCI-H1304,> 5000 nM
same,IC50,CTV-1,479 nM
same,IC50,SK-N-FI,> 5000 nM
same,IC50,SW684,> 5000 nM
same,IC50,SNU-5,> 5000 nM
same,IC50,D283 Med,2240 nM
same,IC50,P30-OHK,> 5000 nM
same,IC50,NCI-H1155,> 5000 nM
same,IC50,NCI-H69,2720 nM
same,IC50,NB13,> 5000 nM
same,IC50,ES4,1850 nM
same,IC50,SK-NEP-1,2040 nM
same,IC50,A253 cell line,> 5000 nM
same,IC50,TE-8,3190 nM
same,IC50,SNU1,> 5000 nM
same,IC50,GT3TKB,3760 nM
same,IC50,TE-9,2170 nM
same,IC50,AM-38,> 5000 nM
same,IC50,CW-2,> 5000 nM
same,IC50,KS-1,> 5000 nM
same,IC50,Ramos-2G6-4C10,1700 nM
same,IC50,GCIY,4710 nM
same,IC50,DJM-1,4800 nM
same,IC50,SBC-1,695 nM
same,IC50,HCC1187,> 5000 nM
same,IC50,BT-474,> 5000 nM
same,IC50,COLO-684,> 5000 nM
same,IC50,EW-16,> 5000 nM
same,IC50,PSN1,3060 nM
same,IC50,MN-60,2450 nM
same,IC50,ATN-1,4420 nM
same,IC50,MSTO-211H,> 5000 nM
same,IC50,SW 954,2860 nM
same,IC50,LAN-6,> 5000 nM
same,IC50,MHH-PREB-1,4400 nM
CC1(C)CNc2cc(NC(=O)c3cccnc3NCc3ccncc3)ccc21 [MOTESANIB],IC50,NB5,> 2000 nM
same,IC50,NCI-H209,> 2000 nM
same,IC50,SCC-15,> 2000 nM
same,IC50,NH-12,> 2000 nM
same,IC50,SW982,> 2000 nM
same,IC50,U-87 MG,> 2000 nM
same,IC50,LB2518-MEL,> 2000 nM
same,IC50,NCI-H2126,> 2000 nM
same,IC50,KARPAS-299,> 2000 nM
same,IC50,IA-LM,> 2000 nM
same,IC50,HEL,> 2000 nM
same,IC50,SNU-C2B,> 2000 nM
same,IC50,697,> 2000 nM
same,IC50,NCI-H1304,> 2000 nM
same,IC50,CTV-1,> 2000 nM
same,IC50,SK-N-FI,> 2000 nM
same,IC50,SW684,> 2000 nM
same,IC50,SNU-5,> 2000 nM
same,IC50,D283 Med,> 2000 nM
same,IC50,P30-OHK,> 2000 nM
same,IC50,NCI-H1155,> 2000 nM
same,IC50,NCI-H69,> 2000 nM
same,IC50,NB13,> 2000 nM
same,IC50,ES4,> 2000 nM
same,IC50,SK-NEP-1,> 2000 nM
same,IC50,A253 cell line,> 2000 nM
same,IC50,TE-8,> 2000 nM
same,IC50,SNU1,> 2000 nM
same,IC50,GT3TKB,> 2000 nM
same,IC50,TE-9,> 2000 nM
same,IC50,AM-38,> 2000 nM
same,IC50,CW-2,> 2000 nM
same,IC50,KS-1,> 2000 nM
same,IC50,Ramos-2G6-4C10,> 2000 nM
same,IC50,GCIY,> 2000 nM
same,IC50,DJM-1,> 2000 nM
same,IC50,SBC-1,> 2000 nM
same,IC50,HCC1187,> 2000 nM
same,IC50,BT-474,> 2000 nM
same,IC50,COLO-684,> 2000 nM
same,IC50,EW-16,> 2000 nM
same,IC50,PSN1,> 2000 nM
same,IC50,MN-60,> 2000 nM
same,IC50,ATN-1,> 2000 nM
same,IC50,MSTO-211H,> 2000 nM
same,IC50,SW 954,> 2000 nM
same,IC50,LAN-6,> 2000 nM
same,IC50,MHH-PREB-1,> 2000 nM
C#Cc1cccc(Nc2ncnc3cc(OCCOC)c(OCCOC)cc23)c1 [ERLOTINIB],IC50,NB5,> 2000 nM
same,IC50,NCI-H209,> 2000 nM
same,IC50,SCC-15,> 2000 nM
same,IC50,NH-12,> 2000 nM
same,IC50,U-87 MG,> 2000 nM
same,IC50,LB2518-MEL,> 2000 nM
same,IC50,NCI-H2126,> 2000 nM
same,IC50,KARPAS-299,> 2000 nM
same,IC50,HEL,> 2000 nM
same,IC50,697,> 2000 nM
same,IC50,CTV-1,> 2000 nM
same,IC50,SW684,> 2000 nM
same,IC50,EC-GI-10,> 2000 nM
same,IC50,SNU-5,> 2000 nM
same,IC50,D283 Med,> 2000 nM
same,IC50,P30-OHK,> 2000 nM
same,IC50,NCI-H69,> 2000 nM
same,IC50,NB13,> 2000 nM
same,IC50,ES4,> 2000 nM
same,IC50,SK-NEP-1,> 2000 nM
same,IC50,A253 cell line,> 2000 nM
same,IC50,TE-8,> 2000 nM
same,IC50,SNU1,> 2000 nM
same,IC50,GT3TKB,> 2000 nM
same,IC50,TE-9,1230 nM
same,IC50,AM-38,> 2000 nM
same,IC50,CW-2,> 2000 nM
same,IC50,KS-1,> 2000 nM
same,IC50,Ramos-2G6-4C10,> 2000 nM
same,IC50,GCIY,> 2000 nM
same,IC50,DJM-1,> 2000 nM
same,IC50,HCC1187,> 2000 nM
same,IC50,BT-474,> 2000 nM
same,IC50,COLO-684,> 2000 nM
same,IC50,EW-16,> 2000 nM
same,IC50,PSN1,> 2000 nM
same,IC50,MN-60,> 2000 nM
same,IC50,ATN-1,> 2000 nM
same,IC50,SW 954,> 2000 nM
same,IC50,LAN-6,> 2000 nM
same,IC50,MHH-PREB-1,> 2000 nM
